Laboratory results taken from publication PMC6934184, “Selective DNA-PKcs inhibition extends the therapeutic index of localized radiotherapy and chemotherapy” (The Journal of Clinical Investigation, 2019).

Target: T1, MAP2K6 (MKK6) (Homo sapiens, UniProt P52564)
T1 construct: purchased Thermo Fisher Scientific (Life Technologies) SelectScreen
Experiment: SelectScreen Z'LYTE
Format: biochemical
Details: ATP 100 µM
Procedure, shortened: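 Compound tested in SelectScreen activity assays, Z'LYTE for CSF1R, CDK1/cyclin B and MAP2K6 and Adapta for CAMK1. ATP for CAMK1 was listed as 10, and Km app was used for CSF1R. Results are expressed in percent.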

T1 sequence (P52564 whole entry): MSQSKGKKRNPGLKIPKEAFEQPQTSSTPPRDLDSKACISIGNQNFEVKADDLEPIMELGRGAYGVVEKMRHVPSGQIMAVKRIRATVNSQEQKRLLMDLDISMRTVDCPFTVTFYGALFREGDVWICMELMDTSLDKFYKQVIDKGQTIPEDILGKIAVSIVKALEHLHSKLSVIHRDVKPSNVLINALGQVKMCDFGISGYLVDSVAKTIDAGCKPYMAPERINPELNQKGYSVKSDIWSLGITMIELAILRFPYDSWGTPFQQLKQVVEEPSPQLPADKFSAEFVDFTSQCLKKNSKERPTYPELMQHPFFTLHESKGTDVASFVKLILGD

**Q.** `CN(C(=O)CN1CCOCC1)c1ccc2sc3c(-c4cccc5c(=O)cc(N6CC7CCC(C6)O7)oc45)cccc3c2c1` [NU5455] was tested. Which inhibition at 1 µM did it give?
**A.** 1.8%
